According to US20250179047A1, “5-[7-(3,4-DIHYDRO-1H-ISOQUINOLINE-2-CARBONYL)-1,2,3,4 TETRAHYDROISOQUINOLIN-6-YL]-1H-PYRROLE-3-CARBOXAMIDE DERIVATIVES, PHARMACEUTICAL COMPOSITIONS CONTAINING THEM AND THEIR USES AS PRO-APOPTOTIC AGENTS” (LES LABORATOIRES SERVIER, priority 2022, published 2025):

Experiments:
BCL2 WT = BCL2 WT (Homo sapiens (Human), UniProt P10415); assay: TR-FRET competitive binding assay, BCL2 WT; conditions: Ki determined from IC50, read-out: TR_FRET EKI_Bcl2 WT
How it was run: (§1)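 Competitive TR-FRET displacement of fluorescein-PUMA peptide (2 or 20 nM) from 0.5 nM terbium-labelled N-terminal Halo-fusion BCL2 (1-207, wild type or mutant) or BCLXL (2-196), expressed in E. coli. Buffer 50 mM Hepes pH 7.5, 150 mM NaCl, 5% DMSO; 2 h at 23°C. 520/495 nm ratio fitted over 11 points for IC50, converted to Ki.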

BCL2 D111A = BCL2 D111A (Homo sapiens, UniProt P10415, D111A); assay: TR-FRET competitive binding assay, BCL2 D111A; conditions: Ki determined from IC50, read-out: TR_FRET EKI_Bcl2 D111A
How it was run: as §1

KMS12PE = assay: In vitro cytotoxicity CellTiterGlo 72 h, KMS12PE; assay type: cell-based; conditions: Homo sapiens, KMS-12-PE, read-out: C50 nM, KMS12PE
Protocol: (§2) KMS-12-PE (ACC 606) were purchased from the Leibniz-Institute DSMZ (Braunschweig, Germany) and were grown at 37° C. in a humidified atmosphere with 5% CO2 in media recommended by the suppliers. Lentiviral particles containing Bcl-2 wild type (also named “Bcl2 WT”), Bcl-2 mutated on G101V (also named “Bcl2 G101V”), Bcl-2 mutated on D103Y (also named “Bcl2 D103Y”), Bcl-2 mutated on D103V (also named “Bcl2 D103V”), Bcl-2 mutated on D103E (also named “Bcl2 D103E”), Bcl-2 mutated on F104I (also named “Bcl2 F104I”), Bcl-2 mutated on F104L (also named “Bcl2 F104L”), Bcl-2 mutated on D111A (also named “Bcl2 D111A”), Bcl-2 mutated on A113G (also named “Bcl2 A113G”), Bcl-2 mutated on R129L (also named “Bcl2 R129L”), Bcl-2 mutated on V156D (also named “Bcl2 V156D”) were cloned into pcLV-CMV-DEST-IRES-TagRFP. Lentiviral particles (1×10^6) were mixed with Polybrene at 8 μg/ml and transduced by spinoculation for 1 h at 32° C. and incubated overnight. After 8 days, TagRFP positive-cells were sorted by FACS. BCL2 expression was monitored by immunoblotting using anti-Flag and anti-BCL2 antibodies. Cells were seeded into 96-wells plates and treated with 1:3.16 serial dilution of compounds (9 different concentrations). Cell viability was assessed using CellTiterGlo reagent following treatment for 72 h. Results were normalized to the viability of cells without compounds (control wells). The C50 values were calculated using nonlinear regression algorithms in XCell software.

KMS12PE Bcl2 F104I = assay: In vitro cytotoxicity CellTiterGlo 72 h, KMS12PE Bcl2 F104I; assay type: cell-based; conditions: Homo sapiens, KMS-12-PE, read-out: C50 nM, KMS12PE Bcl2 F104I
Protocol: as §2

KMS12PE Bcl2 A113G = assay: In vitro cytotoxicity CellTiterGlo 72 h, KMS12PE Bcl2 A113G; assay type: cell-based; conditions: Homo sapiens, KMS-12-PE, read-out: C50 nM, KMS12PE Bcl2 A113G
Protocol: as §2

platelets = assay: Platelet depletion in SCID mice; assay type: in vivo; conditions: 25 mg/kg IV bolus, vs control group; for Platelet loss (%) 6 h: 6 h after dosing; for Platelet loss (%) 24 h: 24 h after dosing
Protocol: (§3) Pharmacokinetic (PK) and platelet toxicity were investigated in SCID mice. Compounds were administered at 25 mg/kg by IV bolus, and formulated in PEG/Ethanol/NaCl 0.9% (40/10/50 v/v/v).
(§4) Blood samples (3 animals/time point and 3 time points/animal) were collected over 24 h after dosing: 0.05 h, 0.5 h, 1 h, 3 h, 6 h and 24 h for PK and 6 h and 24 h for platelets.
(§5) PK samples were analyzed by liquid chromatography using tandem mass spectrometry detection (LC-MS/MS) and platelet count (109/L) was measured using an hematology analyzer. Percentage of platelet loss was calculated at both time points (T+6 h and 24 h) as compared to a control group of 6 animals. PK parameters (Cinf and AUC24, which correspond to the concentration at the end of bolus administration and the area under curve over 24 h, respectively) were also determined using a non-compartmental analysis.

[1] = Pharmacokinetics in SCID mice; assay type: in vivo; conditions: 25 mg/kg IV bolus; for PK parameters Cinf: concentration at the end of bolus administration; for AUC: mouse, blood, area under curve over 24 h, read-out: PK parameters AUC24
Protocol: as §3, §4, §5

BCL2 WT, sequence (P10415 other isoform, or with tags, fused parts or gaps): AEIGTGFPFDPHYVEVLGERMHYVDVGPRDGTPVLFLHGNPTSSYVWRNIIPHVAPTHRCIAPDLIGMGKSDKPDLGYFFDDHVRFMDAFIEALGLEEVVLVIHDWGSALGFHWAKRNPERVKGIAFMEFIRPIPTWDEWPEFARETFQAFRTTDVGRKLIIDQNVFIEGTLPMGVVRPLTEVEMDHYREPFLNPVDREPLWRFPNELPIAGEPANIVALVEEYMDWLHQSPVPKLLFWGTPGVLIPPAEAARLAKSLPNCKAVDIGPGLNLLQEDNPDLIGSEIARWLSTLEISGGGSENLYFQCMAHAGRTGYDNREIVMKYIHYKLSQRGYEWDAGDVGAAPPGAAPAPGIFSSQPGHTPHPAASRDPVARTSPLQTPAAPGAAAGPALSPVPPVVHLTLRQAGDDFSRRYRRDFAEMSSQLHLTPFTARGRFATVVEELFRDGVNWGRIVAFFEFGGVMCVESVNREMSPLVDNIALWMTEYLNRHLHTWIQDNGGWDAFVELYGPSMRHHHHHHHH

Ki (BCL2 WT) | Ki (BCL2 D111A) | Platelet loss (%) 6 h (platelets) | Platelet loss (%) 24 h (platelets) | PK parameters Cinf [1] | AUC [1] | Structure (SMILES) | IC50 (KMS12PE) | IC50 (KMS12PE Bcl2 F104I) | IC50 (KMS12PE Bcl2 A113G)
0.06 nM | 0.2 nM |  |  |  |  | Cc1c(C(=O)N(c2ccc(O)cc2)c2cc(C#N)n(C(F)F)c2C)cc(-c2cc3c(cc2C(=O)N2Cc4ccccc4C[C@H]2CN2CCCCC2)CN(C(=O)Cc2ccc(OCCN4CCOCC4)cc2)CC3)n1C [Example 77] | 0.42 nM | 156 nM | 7.86 nM
0.05 nM | 0.26 nM |  |  |  |  | Cc1c(C(=O)N(c2ccc(O)cc2)c2cc(C#N)n(C(F)F)c2C)cc(-c2cc3c(cc2C(=O)N2Cc4ccccc4C[C@H]2CN2CCCCC2)CN(C(=O)Cc2ccc(OCCN4CCOCC4)cc2F)CC3)n1C [Example 78, N-[5-cyano-1-(difluoromethyl)-2-methylpyrrol-3-yl]-5-[2-(2-{2-fluoro-4-[2-(morpholin-4-yl)ethoxy]phenyl}acetyl)-7-{[(3S)-3-(piperidin-1-ylmethyl)-3,4-dihydro-1H-isoquinolin-2-yl]carbonyl}-3,4-dihydro-1H-isoquinolin-6-yl]-N-(4-hydroxyphenyl)-1,2-dimethylpyrrole-3-carboxamide] | 0.12 nM | 21.8 nM | 2.11 nM
0.09 nM | 0.22 nM |  |  |  |  | Cc1c(N(C(=O)c2cc(-c3cc4c(cc3C(=O)N3Cc5ccccc5C[C@H]3CN3CCC[C@H](C)C3)CN(C(=O)Cc3ccc(OCCN5CCOCC5)cc3F)CC4)n(C)c2C)c2ccc(O)cc2)cc(C#N)n1C [Example 107] | 0.15 nM | 23.6 nM | 2.82 nM

Further lines, the molecule ahead of its results:

Structure (SMILES) | Ki (BCL2 WT) | Ki (BCL2 D111A) | Platelet loss (%) 6 h (platelets) | Platelet loss (%) 24 h (platelets) | PK parameters Cinf [1] | AUC [1] | IC50 (KMS12PE) | IC50 (KMS12PE Bcl2 F104I) | IC50 (KMS12PE Bcl2 A113G)
Cc1c(N(C(=O)c2cc(-c3cc4c(cc3C(=O)N3Cc5ccccc5C[C@H]3C)CN(C(=O)Cc3ccc(OCCN5CCOCC5)cc3)CC4)n(C)c2C)c2ccc(O)cc2)cc(C#N)n1C [Example 21, N-(5-cyano-1,2-dimethyl-1H-pyrrol-3-yl)-N-(4-hydroxyphenyl)-1,2-dimethyl-5-{7-[(3R)-3-methyl-1,2,3,4-tetrahydroisoquinoline-2-carbonyl]-2-(2-{4-[2-(morpholin-4-yl)ethoxy]phenyl}acetyl)-1,2,3,4-tetrahydroisoquinolin-6-yl}-1H-pyrrole-3-carboxamide] | 0.11 nM | 0.19 nM | 58.4% | 30.3% | 21.0 µM | 12 µM·h | 0.24 nM | 45 nM | 4.06 nM
Cc1c(N(C(=O)c2cc(-c3cc4c(cc3C(=O)N3Cc5ccccc5C[C@H]3C)CN(C(=O)Cc3ccc(OCCC5CCOCC5)cc3)CC4)n(C)c2C)c2ccc(O)cc2)cc(C#N)n1C [Example 27, N-(5-cyano-1,2-dimethyl-1H-pyrrol-3-yl)-N-(4-hydroxyphenyl)-1,2-dimethyl-5-{7-[(3R)-3-methyl-1,2,3,4-tetrahydroisoquinoline-2-carbonyl]-2-(2-{4-[2-(oxan-4-yl)ethoxy]phenyl}acetyl)-1,2,3,4-tetrahydroisoquinolin-6-yl}-1H-pyrrole-3-carboxamide] | 0.8 nM | 1.67 nM | 18.6% | 11.0% | 12.2 µM | 19.5 µM·h | 0.19 nM | 29.1 nM | 2.79 nM
Cc1c(N(C(=O)c2cc(-c3cc4c(cc3C(=O)N3Cc5ccccc5C[C@H]3CN3CCCCC3)CN(C(=O)Cc3ccc(OCCN5CCOCC5)cc3F)CC4)n(C)c2C)c2ccc(O)cc2)cc(C#N)n1C [Example 43, N-(5-cyano-1,2-dimethylpyrrol-3-yl)-5-[2-(2-{2-fluoro-4-[2-(morpholin-4-yl)ethoxy]phenyl}acetyl)-7-{[(3S)-3-(piperidin-1-ylmethyl)-3,4-dihydro-1H-isoquinolin-2-yl]carbonyl}-3,4-dihydro-1H-isoquinolin-6-yl]-N-(4-hydroxyphenyl)-1,2-dimethylpyrrole-3-carboxamide] | 0.04 nM | 0.1 nM | 25.3% | 9.2% | 15.4 µM | 16.9 µM·h | 0.22 nM | 29.3 nM | 2.5 nM
Cc1c(N(C(=O)c2cc(-c3cc4c(cc3C(=O)N3Cc5ccccc5C[C@H]3C)CN(C(=O)Cc3ccc(N5CCN6CCOC[C@@H]6C5)cc3F)CC4)n(C)c2C)c2ccc(O)cc2)cc(C#N)n1C [Example 45, 5-[2-(2-{4-[(9aS)-octahydropyrazino[2,1-c][1,4]oxazin-8-yl]-2-fluorophenyl}acetyl)-7-[(3R)-3-methyl-1,2,3,4-tetrahydroisoquinoline-2-carbonyl]-1,2,3,4-tetrahydroisoquinolin-6-yl]-N-(5-cyano-1,2-dimethyl-1H-pyrrol-3-yl)-N-(4-hydroxyphenyl)-1,2-dimethyl-1H-pyrrole-3-carboxamide] | 0.08 nM | 0.19 nM | 22.0% | 27.6% | 40.8 µM | 34.2 µM·h | 0.32 nM | 114 nM | 8.03 nM
Cc1c(N(C(=O)c2cc(-c3cc4c(cc3C(=O)N3Cc5ccccc5C[C@H]3C)CN(C(=O)Cc3ccc(CCN5CCC(F)(F)CC5)cc3)CC4)n(C)c2C)c2ccc(O)cc2)cc(C#N)n1C [Example 51, N-(5-cyano-1,2-dimethylpyrrol-3-yl)-5-[2-(2-{4-[2-(4,4-difluoropiperidin-1-yl)ethyl]phenyl}acetyl)-7-{[(3R)-3-methyl-3,4-dihydro-1H-isoquinolin-2-yl]carbonyl}-3,4-dihydro-1H-isoquinolin-6-yl]-N-(4-hydroxyphenyl)-1,2-dimethylpyrrole-3-carboxamide] | 0.22 nM | 0.89 nM |  |  |  |  | 0.34 nM | 321 nM | 9.24 nM
Cc1c(N(C(=O)c2cc(-c3cc4c(cc3C(=O)N3Cc5ccccc5C[C@H]3C)CN(C(=O)Cc3ccc(OCCN5CCC(F)CC5)cc3)CC4)n(C)c2C)c2ccc(O)cc2)cc(C#N)n1C [Example 53, N-(5-cyano-1,2-dimethyl-1H-pyrrol-3-yl)-5-[2-(2-{4-[2-(4-fluoropiperidin-1-yl)ethoxy]phenyl}acetyl)-7-[(3R)-3-methyl-1,2,3,4-tetrahydroisoquinoline-2-carbonyl]-1,2,3,4-tetrahydroisoquinolin-6-yl]-N-(4-hydroxyphenyl)-1,2-dimethyl-1H-pyrrole-3-carboxamide] | 0.07 nM | 0.18 nM |  |  |  |  | 0.35 nM | 72.7 nM | 5.68 nM
Cc1c(N(C(=O)c2cc(-c3cc4c(cc3C(=O)N3Cc5ccccc5C[C@H]3CN3CCCCC3)CN(C(=O)Cc3ccc(OCCC5CCOCC5)cc3)CC4)n(C)c2C)c2ccc(O)cc2)cc(C#N)n1C [Example 66, N-(5-cyano-1,2-dimethylpyrrol-3-yl)-N-(4-hydroxyphenyl)-1,2-dimethyl-5-[2-(2-{4-[2-(oxan-4-yl)ethoxy]phenyl}acetyl)-7-{[(3S)-3-(piperidin-1-ylmethyl)-3,4-dihydro-1H-isoquinolin-2-yl]carbonyl}-3,4-dihydro-1H-isoquinolin-6-yl]pyrrole-3-carboxamide] | 0.08 nM | 0.23 nM |  |  |  |  | 0.2 nM | 65.2 nM | 2.89 nM
